According to patent publication US12065443B2, “Compounds and pharmaceutical compositions thereof for the treatment of diseases” (priority 2017, dated 2024):

How the values were obtained:
[1] = system: LPS-induced TNFα secretion in monocyte-derived macrophages (MdM); experiment: MdM assay: LPS-triggered TNFα (ELISA); type: cell-based, human; conditions: Homo sapiens, Macrophage, LPS-triggered TNFα inhibition
Procedure, shortened: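 Human CD14+ monocytes isolated from buffy-coat PBMCs by magnetic beads, differentiated to macrophages; on day 10 compound preincubated 1 h at 37 °C, then LPS 200 ng/mL added (0.2% DMSO). Supernatant taken after 20 h; TNFα quantified by sandwich ELISA against standard curve.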

[2] = system: LPS triggered IL-10 secretion in monocyte-derived macrophages (MdM); experiment: MdM assay: LPS-triggered IL-10 (ELISA); type: cell-based, human; conditions: maximal fold change vs LPS only, median across assays
Procedure: This assay evaluates illustrative compounds of the invention for their inhibition of LPS-induced TNFα and LPS triggered IL-10 secretion in monocyte-derived macrophages.
PBMCs are isolated from human blood samples (buffycoats). The buffy coat is aseptically transferred into a 50 mL Falcon tube, and diluted 1/2 in PBS. Falcon tubes are filled with 20 mL Lymphoprep™, on top of which 25 mL of the buffy coat is carefully added, tubes are centrifuged for 35 min at 400 g in temperature controlled centrifuge, without brake, at 25° C. PBMCs are aspirated from the white interface layer between sample and Lymphoprep™. PBMCs are washed five times in PBS.
PBMCs are centrifuged at 300×g for 10 min and resuspended at a density of 1.0E07 cells/80 μL Miltenyi buffer (PBS, pH 7.4, 1% FBS, 2 mM EDTA).
Starting from this point of the protocol all steps are performed on ice. 20 μL of CD14+ micro-beads are added per 1.0E07 cells, the tube is mixed and incubated for 15 min in the fridge at 4° C. Cell suspension volume is adjusted to total volume of 100 mL using Miltenyi buffer, mixed gently and subsequently centrifuged for 10 min at 300× g. Supernantant is discarded and cell pellet is resuspended in 12 mL of Miltenyi buffer.
Four LS columns are placed in the MACS Separator (magnet) from Miltenyi Biotec, and are prewet by rinsing with 3 mL of MACS buffer per column. Three mL of cell suspension is added onto the column (max 1*10^8 of labelled cells/column), and columns are subsequently washed 3 times with 3 mL of Miltenyi buffer.
The columns are removed from the magnets, and 5 mL of Miltenyi buffer are added to the column to flush out the CD14+ fraction by pushing the plunger into the column. The flushed fractions are collected in a fresh 50 mL Falcon and volume is adjusted to 30 mL using Miltenyi buffer, cells are centrifuged for 10 min at 300× g. The obtained cell pellet is resuspended in 10 mL RPMI w/o FBS, and cell density is determined using a hematologic analyser (Sysmex XS-500i).
On day 10, MdMs are triggered and compound is added.
A compound dilution plate is made in 100% DMSO by 3-fold dilution of 10 mM stock solution. An intermediate dilution plate (10× final concentration) is made by diluting the compound dilution plate 50-fold in RPMI medium.
Medium is carefully removed from cell plates using multichannel pipette, and replaced by 80 μL fresh medium. 10 μL of the 10× final concentration compound is added to the cells and incubated for 1 hour at 37° C. before addition of trigger. No trigger conditions/trigger conditions are spiked with equal final DMSO concentrations of 0.2% DMSO. 10 μL of 10×LPS (final conc. 200 ng/mL) solution are added to all wells except for the ‘no trigger wells’ where 10 μL medium is added. Supernatant is collected after 2 h (IL-10 determination) and after 20 h (TNFα determination) of LPS triggering.
Plates are washed three times with PBST, where after 100 μL of Strep-HRP conjugate (0.5 μg/mL final concentration diluted in dilution buffer) is added. Plates are incubated in the dark, at 37° C. for 30 min. Plates are washed three times with PBST. […] 100 μL of substrate solution is added to each well and incubated until brilliant blue color develops. The reaction is stopped by adding 50 μL of 1 M H2SO4, after which absorbance is measured at 450 nm on the SpectraMax i3, Molecular Devices.
To quantify these inductions fold changes (FC) compared to ‘LPS only’ are calculated for each concentration tested and the maximal FC is calculated (IL-10 FCmax):
[formula] wherein ABS=Absorbance measured at 450 nm.
The median maximal FC for test compounds across two or more assays is reported (IL-10FCmax median).

SIK1 = target: T1, SIK1 (Homo sapiens, UniProt P57059); experiment: biochemical; conditions: 33P radioactive SIK kinase assay, AMARA peptide, 10 μM ATP; read-out: SIK1 IC50
T1 construct: purchased Carna Biosciences 02-131
T1 sequence (P57059 whole entry): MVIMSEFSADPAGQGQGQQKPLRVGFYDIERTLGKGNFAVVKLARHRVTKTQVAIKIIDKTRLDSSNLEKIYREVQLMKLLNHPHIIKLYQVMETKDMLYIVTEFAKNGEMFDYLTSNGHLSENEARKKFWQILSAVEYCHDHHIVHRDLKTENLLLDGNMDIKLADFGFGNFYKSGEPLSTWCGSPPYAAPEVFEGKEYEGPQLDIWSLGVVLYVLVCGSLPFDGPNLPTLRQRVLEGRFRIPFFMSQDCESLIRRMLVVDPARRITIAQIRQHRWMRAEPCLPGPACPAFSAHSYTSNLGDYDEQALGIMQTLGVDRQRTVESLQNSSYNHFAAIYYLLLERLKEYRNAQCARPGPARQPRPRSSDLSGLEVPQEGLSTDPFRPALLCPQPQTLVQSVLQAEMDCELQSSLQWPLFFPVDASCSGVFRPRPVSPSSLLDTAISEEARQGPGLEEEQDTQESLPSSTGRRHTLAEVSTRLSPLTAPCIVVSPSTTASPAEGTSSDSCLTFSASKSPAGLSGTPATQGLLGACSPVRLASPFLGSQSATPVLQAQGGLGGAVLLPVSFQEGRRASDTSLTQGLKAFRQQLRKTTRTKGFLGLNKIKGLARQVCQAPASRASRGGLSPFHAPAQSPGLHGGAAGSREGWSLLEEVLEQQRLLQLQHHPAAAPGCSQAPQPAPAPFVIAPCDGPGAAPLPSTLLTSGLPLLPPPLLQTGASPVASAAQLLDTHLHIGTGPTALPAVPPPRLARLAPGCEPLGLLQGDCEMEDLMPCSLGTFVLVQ
Procedure, shortened: (§1)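 Radiometric assay: SIK1, SIK2 or SIK3 phosphorylates AMARA peptide using unlabelled plus [^33P]-γ-ATP, reaction started by ATP addition. Stopped with 150 mM phosphoric acid, filter-harvested and washed; incorporated ^33P counted by scintillation. Controls: 1% DMSO and 10 μM staurosporine final.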

SIK3 = target: T2, SIK3 (Homo sapiens, UniProt Q9Y2K2); experiment: biochemical
T2 construct: purchased SignalChem S12-11G-100
T2 sequence (Q9Y2K2 whole entry): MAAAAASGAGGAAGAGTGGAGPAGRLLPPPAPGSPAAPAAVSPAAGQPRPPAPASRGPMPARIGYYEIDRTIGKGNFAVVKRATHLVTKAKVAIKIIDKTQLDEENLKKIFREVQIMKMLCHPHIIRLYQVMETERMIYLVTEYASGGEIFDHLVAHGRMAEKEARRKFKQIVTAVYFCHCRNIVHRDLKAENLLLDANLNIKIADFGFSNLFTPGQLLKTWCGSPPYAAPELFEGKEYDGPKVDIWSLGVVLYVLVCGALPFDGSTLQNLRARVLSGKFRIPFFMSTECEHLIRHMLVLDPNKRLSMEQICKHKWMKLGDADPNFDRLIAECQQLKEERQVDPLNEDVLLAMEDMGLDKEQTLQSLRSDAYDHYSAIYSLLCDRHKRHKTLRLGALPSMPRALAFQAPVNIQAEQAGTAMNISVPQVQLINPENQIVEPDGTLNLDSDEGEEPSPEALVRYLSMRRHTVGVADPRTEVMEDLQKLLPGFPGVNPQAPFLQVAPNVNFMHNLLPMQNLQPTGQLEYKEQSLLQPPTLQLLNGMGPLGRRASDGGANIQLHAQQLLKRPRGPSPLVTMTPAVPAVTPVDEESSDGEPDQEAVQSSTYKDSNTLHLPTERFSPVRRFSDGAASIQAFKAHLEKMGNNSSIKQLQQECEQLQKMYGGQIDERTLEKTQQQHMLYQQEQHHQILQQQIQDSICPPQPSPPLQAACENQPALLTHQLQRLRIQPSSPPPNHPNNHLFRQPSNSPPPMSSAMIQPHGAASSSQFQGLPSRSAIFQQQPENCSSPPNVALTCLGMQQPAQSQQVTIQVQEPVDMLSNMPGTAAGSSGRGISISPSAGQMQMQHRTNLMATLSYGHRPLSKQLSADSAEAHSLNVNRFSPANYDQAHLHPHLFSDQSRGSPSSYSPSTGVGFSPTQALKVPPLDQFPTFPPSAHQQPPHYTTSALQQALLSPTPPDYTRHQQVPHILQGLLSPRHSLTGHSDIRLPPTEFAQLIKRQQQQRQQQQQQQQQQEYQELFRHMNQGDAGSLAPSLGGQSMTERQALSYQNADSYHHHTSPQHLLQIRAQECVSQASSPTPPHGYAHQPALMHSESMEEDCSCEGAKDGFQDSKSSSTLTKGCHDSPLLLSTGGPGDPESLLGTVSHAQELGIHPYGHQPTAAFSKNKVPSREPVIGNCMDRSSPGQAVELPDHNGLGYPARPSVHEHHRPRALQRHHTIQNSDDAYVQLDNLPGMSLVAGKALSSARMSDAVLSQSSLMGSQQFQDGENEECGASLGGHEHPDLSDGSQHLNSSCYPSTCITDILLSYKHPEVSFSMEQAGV
Procedure, shortened: as §1

SIK2 = target: T3, SIK2 (Homo sapiens, UniProt Q9H0K1); experiment: biochemical; conditions: 33P radioactive SIK kinase assay, AMARA peptide, 10 μM ATP
T3 construct: purchased ThermoFisher Scientific PV4792
T3 sequence (Q9H0K1 whole entry): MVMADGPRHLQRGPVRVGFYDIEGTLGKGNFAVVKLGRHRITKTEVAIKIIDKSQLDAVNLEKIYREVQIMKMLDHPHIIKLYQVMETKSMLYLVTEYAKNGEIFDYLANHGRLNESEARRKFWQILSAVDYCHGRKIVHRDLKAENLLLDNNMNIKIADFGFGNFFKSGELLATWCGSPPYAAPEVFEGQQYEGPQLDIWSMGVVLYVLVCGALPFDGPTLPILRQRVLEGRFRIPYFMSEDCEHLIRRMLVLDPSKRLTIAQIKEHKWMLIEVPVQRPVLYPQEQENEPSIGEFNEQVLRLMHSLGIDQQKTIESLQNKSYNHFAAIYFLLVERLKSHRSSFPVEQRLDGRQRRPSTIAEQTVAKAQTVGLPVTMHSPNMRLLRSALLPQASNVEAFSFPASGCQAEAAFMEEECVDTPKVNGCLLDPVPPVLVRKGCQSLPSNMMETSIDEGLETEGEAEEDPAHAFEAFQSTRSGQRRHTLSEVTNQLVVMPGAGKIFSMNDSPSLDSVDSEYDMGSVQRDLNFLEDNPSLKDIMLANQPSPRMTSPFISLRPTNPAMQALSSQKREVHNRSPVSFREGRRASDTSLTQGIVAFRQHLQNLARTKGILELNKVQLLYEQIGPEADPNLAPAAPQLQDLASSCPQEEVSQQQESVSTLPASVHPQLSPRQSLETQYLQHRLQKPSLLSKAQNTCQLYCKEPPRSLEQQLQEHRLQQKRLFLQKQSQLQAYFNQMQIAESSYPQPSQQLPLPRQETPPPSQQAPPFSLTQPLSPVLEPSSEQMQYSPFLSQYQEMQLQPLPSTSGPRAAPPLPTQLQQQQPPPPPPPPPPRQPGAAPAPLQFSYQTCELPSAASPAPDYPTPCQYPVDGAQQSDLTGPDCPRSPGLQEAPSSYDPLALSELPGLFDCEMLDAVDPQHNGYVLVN
Procedure, shortened: as §1

Row | Structure (SMILES) | EC50 [1] | IL-10 FCmax median [2] | IC50 (SIK1) | IC50 (SIK3) | IC50 (SIK2)
1 | COc1cc(-c2cnc3cc(-c4cnn(C)c4)ccn23)cc(Cl)c1C(=O)NCC(F)(F)F [compound 207, 2-chloro-6-methoxy-4-[7-(1-methylpyrazol-4-yl)imidazo[1,2-a]pyridin-3-yl]-N-(2,2,2-trifluoroethyl)benzamide] | 100 to 1000 nM | ++ (>1.5-4.5) | 10 to 100 nM | 0.01 to 10 nM | 0.01 to 10 nM
2 | CCn1cc(-c2ccc3c(c2)ncn3-c2cc(OC)c(C(=O)NCC(F)F)c(OC)c2)cn1 [compound 11, N-(2,2-difluoroethyl)-4-[5-(1-ethylpyrazol-4-yl)benzimidazol-1-yl]-2,6-dimethoxy-benzamide] | 100 to 1000 nM | ++ (>1.5-4.5) | 10 to 100 nM | 0.01 to 10 nM | 0.01 to 10 nM
3 | COc1cc(-c2cnc3cc(-c4cnn(C)c4)ccn23)cc(C)c1C(=O)NCC(F)(F)F [Cpd 206, 2-methoxy-6-methyl-4-[7-(1-methylpyrazol-4-yl)imidazo[1,2-a]pyridin-3-yl]-N-(2,2,2-trifluoroethyl)benzamide] | 100 to 1000 nM | +++ (>4.5) | 10 to 100 nM | 10 to 100 nM | 10 to 100 nM
4 | COC(=O)CCCn1cc(-c2ccn3c(-c4cc(OC)c(C(=O)NCC(F)(F)F)c(OC)c4)cnc3c2)cn1 [compound 256, methyl 4-[4-[3-[3,5-dimethoxy-4-(2,2,2-trifluoroethyl-carbamoyl)phenyl]imidazo[1,2-a]pyridin-7-yl]pyrazol-1-yl]butanoate] | 0.1 to 100 nM | ++ (>1.5-4.5) | 0.01 to 10 nM | 0.01 to 10 nM | 0.01 to 10 nM
5 | CCn1cc(-c2cnc3c(c2)ncn3-c2cc(OC)c(C(=O)NCC(F)(F)F)c(OC)c2)cn1 [Cpd 29, 4-[6-(1-ethylpyrazol-4-yl)imidazo[4,5-b]pyridin-3-yl]-2,6-dimethoxy-N-(2,2,2-trifluoroethyl)benzamide] | 100 to 1000 nM | ++ (>1.5-4.5) | 10 to 100 nM | 10 to 100 nM | 10 to 100 nM
6 | CCOC(=O)CCCn1cc(-c2ccn3c(-c4cc(OC)c(C(=O)NCC(F)(F)F)c(OC)c4)cnc3c2)cn1 [compound 257, ethyl 4-[4-[3-[3,5-dimethoxy-4-(2,2,2-trifluoroethyl-carbamoyl)phenyl]imidazo[1,2-a]pyridin-7-yl]pyrazol-1-yl]butanoate] | 0.1 to 100 nM | + (≤1.5) | 0.01 to 10 nM | 0.01 to 10 nM | 0.01 to 10 nM
7 | CCn1cc(-c2ccc3c(c2)ncn3-c2cc(OC)c(C(=O)NC3CC3)c(OC(F)F)c2)cn1 [compound 54, N-cyclopropyl-2-(difluoromethoxy)-4-[5-(1-ethylpyrazol-4-yl)benzimidazol-1-yl]-6-methoxy-benzamide] | 0.1 to 100 nM | ++ (>1.5-4.5) | 10 to 100 nM | 0.01 to 10 nM | 0.01 to 10 nM
8 | COc1cc(-c2cnc3cc(-c4cn[nH]c4)ccn23)cc(OC)c1C(=O)N[C@H](C)C(F)(F)F [compound 222, 2,6-dimethoxy-4-[7-(1H-pyrazol-4-yl)imidazo[1,2-a]pyridin-3-yl]-N-[(1R)-2,2,2-trifluoro-1-methyl-ethyl]benzamide] | 100 to 1000 nM | +++ (>4.5) | 0.01 to 10 nM | 0.01 to 10 nM | 0.01 to 10 nM
9 | COc1cc(-n2cnc3cc(-c4cnn(C)c4)ccc32)cc(OC)c1C(=O)N[C@@H](C)C(F)(F)F [compound 80, 2,6-dimethoxy-4-[5-(1-methylpyrazol-4-yl)benzimidazol-1-yl]-N-[(1S)-2,2,2-trifluoro-1-methyl-ethyl]benzamide] | 0.1 to 100 nM | ++ (>1.5-4.5) | 10 to 100 nM | 10 to 100 nM | 0.01 to 10 nM
10 | CCn1cc(-c2ccc3c(c2)ncn3-c2cc(OC)c(C(=O)NC3C[C@H]3C)c(OC)c2)cn1 (stereo partly drawn) [compound 49, 4-[5-(1-ethylpyrazol-4-yl)benzimidazol-1-yl]-2,6-dimethoxy-N-[(2R)-2-methylcyclopropyl]benzamide] | > 5000 nM | ++ (>1.5-4.5) | 10 to 100 nM | 10 to 100 nM | 10 to 100 nM
11 | COc1cc(-n2cnc3cc(-c4cnn(CCN5CCOCC5)c4)ccc32)cc(OC)c1C(=O)NCC(F)(F)F [compound 41, 2,6-dimethoxy-4-[5-[1-(2-morpholinoethyl)pyrazol-4-yl]benzimidazol-1-yl]-N-(2,2,2-trifluoroethyl)benzamide] | 100 to 1000 nM | ++ (>1.5-4.5) | 10 to 100 nM | 0.01 to 10 nM | 0.01 to 10 nM
12 | COc1cc(-n2cnc3cc(-c4cnn(C)c4)ccc32)cc(OC)c1C(=O)N[C@@H]1C[C@@H]1F [compound 144, N-[(1R,2S)-2-fluorocyclopropyl)-2,6-dimethoxy-4-[5-(1-methylpyrazol-4-yl)benzimidazol-1-yl]benzamide] | 0.1 to 100 nM | ++ (>1.5-4.5) | 0.01 to 10 nM | 0.01 to 10 nM | 0.01 to 10 nM
13 | COc1cc(-c2cnn3cc(-c4cnn(C)c4)cnc23)cc(OC)c1C(=O)NCC(F)F [compound 24, N-(2,2-difluoroethyl)-2,6-dimethoxy-4-[6-(1-methylpyrazol-4-yl)pyrazolo[1,5-a]pyrimidin-3-yl]benzamide] | 100 to 1000 nM | ++ (>1.5-4.5) | 10 to 100 nM | 10 to 100 nM | 0.01 to 10 nM
14 | COc1cc(-n2cnc3cc(-c4cnn(C)c4)ccc32)cc(OC)c1C(=O)NC1CC1 [Cpd 86, N-cyclopropyl-2,6-dimethoxy-4-[5-(1-methylpyrazol-4-yl)benzimidazol-1-yl]benzamide] | 0.1 to 100 nM | ++ (>1.5-4.5) | 10 to 100 nM | 0.01 to 10 nM | 0.01 to 10 nM
15 | CCn1cc(-c2ccc3c(c2)ncn3-c2cc(OC)c(C(=O)NCC#N)c(OC)c2)cn1 [compound 50, N-(cyanomethyl)-4-[5-(1-ethylpyrazol-4-yl)benzimidazol-1-yl]-2,6-dimethoxy-benzamide] | 100 to 1000 nM | ++ (>1.5-4.5) | 10 to 100 nM | 0.01 to 10 nM | 0.01 to 10 nM
16 | COc1cc(-n2cnc3cc(-c4cnn(CC#N)c4)ccc32)cc(OC)c1C(=O)NCC(F)(F)F [compound 40, 4-[5-[1-(cyanomethyl)pyrazol-4-yl]benzimidazol-1-yl]-2,6-dimethoxy-N-(2,2,2-trifIuoroethyl)benzamide] | 0.1 to 100 nM | ++ (>1.5-4.5) | 10 to 100 nM | 0.01 to 10 nM | 0.01 to 10 nM
